The results in this text go back to US20100324086A1, “COMPOUNDS AND METHODS” (Novasaid AB, priority 2008, published 2010).

Structures are written as SMILES.

The experiment addresses T1, recombinant, membrane-bound mPGES-1 (Homo sapiens, UniProt O14684).
T1 sequence (O14684 1-152): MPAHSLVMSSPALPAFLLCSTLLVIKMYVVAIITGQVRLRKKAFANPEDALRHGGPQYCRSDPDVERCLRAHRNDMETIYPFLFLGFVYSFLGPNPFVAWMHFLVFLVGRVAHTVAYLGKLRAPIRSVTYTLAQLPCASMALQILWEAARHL
Kind of experiment: Thiobarbituric acid assay (TBA-MDA assay), inhibition of mPGES-1. It counts as biochemical. Conditions: remaining PGH2 measured at 535 nm. From the text: Malondialdehyde is a product of lipid peroxidation and reacts with thiobarbituric acid forming a red product that absorbs at 535 nm (W. G. Niehaus, Jr and B. Samuelsson, Eur. J. Biochem 6, 126 (1968). The extinction coefficient of the TBA-MDA conjugate is 1.56×10^5 M^−1 cm^−1 (E. D. Wills. Biochem. J. 113, 315 (1969).
The method used for detection of inhibition of mPGES-1 is based on the detection of the amount of remaining PGH2. This method was described more than 20 years ago by Basevich et al (Bioorg. Khim. 1983, 9(5), 658-665.
The assay used was a modified variant and used citric acid instead of the TCA-TBA-HCl reagent described in the original assay. In this assay recombinant, membrane-bound mPGES-1 was incubated with PGH2. The reaction was stopped by adding citric acid with a final pH of 3 and a large excess of FeCl2 (20 mM) to convert any remaining PGH2 into MDA and […]. TBA reagent was finally added (0.67%) and the samples were heated at 80° C. for 30 min. The absorbance of the conjugate was measured at 535 nm.
The product of mPGES-1 (PGE2) was not measured directly in this assay, but rather the remaining substrate (PGH2) indirectly by adding FeCl2 that converts PGH2 into […] and 12-HHT. As a positive control a known mPGES-1 inhibitor, MK-886, was used and the new inhibitors were compared with the inhibition of MK-886 (% of MK-886 inhibition).
For `COc1cccc(OC)c1C(=O)Nc1cccc(C(=O)NC2CCCCCC2)c1` [Compound 65, N-(3-Cycloheptylcarbamoyl-phenyl)-2,6-dimethoxy-benzamide], the IC50 amounted to 6.9 µM.

Regarding `O=C(NCc1cccc2ccccc12)c1cccc(NC(=O)c2ccccc2C(F)(F)F)c1` [Compound 109, N-{3-[(Naphthalen-1-ylmethyl)-carbamoyl]-phenyl}-2-trifluoromethyl-benzamide], the IC50 was found to be 0.13 µM.

Take `O=C(Nc1cccc(C(=O)Nc2ccc3ccccc3n2)c1)c1ccccc1` [Compound 17, 3-Benzoylamino-N-quinolin-2-yl-benzamide]: the IC50 worked out at 3.5 µM.

In the case of `O=C(Nc1ccc2ccccc2n1)c1cccc(NC(=O)c2ccccc2Br)c1` [Compound 38, 3-(2-Bromo-benzoylamino)-N-quinolin-2-yl-benzamide], the IC50 turned out to be 0.14 µM.

With `O=C(NCc1ccccc1C(F)(F)F)c1cccc(NC(=O)c2ccccc2C(F)(F)F)c1` [Compound 134, 3-(2-Trifluoromethyl-benzoylamino)-N-(2-trifluoromethyl-benzyl)-benzamide], the IC50 worked out at 0.07 µM.

With `O=C(NCc1cccc2ccccc12)c1cccc(NC(=O)c2ccccc2I)c1` [Compound 112, 2-Iodo-N-{3-[(naphthalen-1-ylmethyl)-carbamoyl]-phenyl}-benzamide], the IC50 is 0.22 µM.

On to `O=C(Nc1cccc(C(=O)Nc2ccc3ccccc3n2)c1)c1cccc(Cl)c1` [Compound 29, 3-(3-Chloro-benzoylamino)-N-quinolin-2-yl-benzamide], for which the IC50 was determined as 4.2 µM.

For `Cc1ccccc1C(=O)Nc1cccc(C(=O)NC2CCCCCC2)c1` [Compound 57, N-(3-Cycloheptylcarbamoyl-phenyl)-2-methylbenzamide], the IC50 is 0.39 µM.

Consider `C[C@H](NC(=O)c1cccc(NC(=O)c2ccccc2F)c1)c1cccc2ccccc12` [Compound 73, 2-Fluoro-N-[3-((S)-1-naphthalen-1-yl-ethylcarbamoyl)-phenyl]-benzamide], for which the half-inhibitory concentration (IC50) came to 1.8 µM.

Consider `C[C@@H](NC(=O)c1cccc(NC(=O)c2c(Cl)cccc2Cl)c1)c1cccc2ccccc12` [Compound 89, 2,6-Dichloro-N-[3-((R)-1-naphthalen-1-yl-ethylcarbamoyl)-phenyl]-benzamide], for which the IC50 is 0.6 µM.

With `CN(C)c1ccccc1CNC(=O)c1cccc(NC(=O)c2ccccc2C(F)(F)F)c1` [Compound 145, N-(2-Dimethylamino-benzyl)-3-(2-trifluoromethyl-benzoylamino)-benzamide], the IC50 was 0.47 µM.

With `O=C(NC1CCCCCC1)c1cccc(NC(=O)c2ccccc2Cl)c1` [Compound 36, 3-(2-Chloro-benzoylamino)-N-cycloheptyl-benzamide], the IC50 worked out at 0.33 µM.

Take `O=C(Nc1ccc2ccccc2n1)c1cccc(NC(=O)c2ccccc2[N+](=O)[O-])c1` [Compound 53, 3-(2-Nitro-benzoylamino)-N-quinolin-2-yl-benzamide]: the IC50 turned out to be 0.5 µM.

For `CCCCNC(=O)c1cccc(NC(=O)c2ccccc2Cl)c1` [Compound 4, 3-(2-Chloro-benzoylamino)-N-butyl-benzamide], the IC50 came to 3.9 µM.

Take `Cc1ccccc1C(=O)Nc1cccc(C(=O)NCc2cccc3ccccc23)c1` [Compound 110, N-{3-[(Naphthalen-1-ylmethyl)-carbamoyl]-phenyl}-2-methyl-benzamide]: the IC50 was determined as 0.33 µM.

Take `O=C(NC1CCCCCC1)c1cccc(NC(=O)c2ccccc2C(F)(F)F)c1` [Compound 56, N-(3-Cycloheptylcarbamoyl-phenyl)-2-trifluoromethylbenzamide]: the IC50 amounted to 0.66 µM.

Turning to `O=C(Nc1ccc2ccccc2n1)c1cccc(NC(=O)c2ccccc2Cl)c1` [Compound 9, 3-(2-Chloro-benzoylamino)-N-(quinolin-2-yl-)-benzamide], the IC50 stood at 0.6 µM.

Take `O=C(Nc1ccc(-c2ccccc2)cn1)c1cccc(NCc2ccccc2C(F)(F)F)c1` [Compound 166, 3-[2-(Trifluoromethyl)-benzylamino]-N-(5-phenyl-pyridine-2-yl)-benzamide]: the IC50 was 0.053 µM.

`O=C(NCc1ccccc1N1CCCCC1)c1cccc(NC(=O)c2ccccc2C(F)(F)F)c1` [Compound 146, N-(2-piperidin-1-yl-benzyl)-3-(2-trifluoromethyl-benzoylamino)-benzamide]: the IC50 came to 0.17 µM.

`COc1ccccc1CNC(=O)c1cccc(NC(=O)c2ccccc2C(F)(F)F)c1` [Compound 144, N-(2-Methoxy-benzyl)-3-(2-trifluoromethyl-benzoylamino)-benzamide]: the IC50 came to 0.84 µM.

In the case of `O=C(Nc1ccc2ccccc2n1)c1cccc(NC(=O)c2c(Cl)cccc2Cl)c1` [Compound 40, 3-(2,6-Chloro-benzoylamino)-N-quinolin-2-yl-benzamide], the IC50 was determined as 0.8 µM.

Take `O=C(Nc1nc2cc(Cl)ccc2o1)c1cccc(NC(=O)c2ccccc2C(F)(F)F)c1` [Compound 164, N-(3-(5-chlorobenzo[d]oxazol-2-ylcarbamoyl)phenyl)-2-(trifluoromethyl)benzamide]: the IC50 came to 0.068 µM.

As for `Cc1ccccc1C(=O)Nc1cccc(C(=O)N[C@@H](C)c2cccc3ccccc23)c1` [Compound 78, 2-Methyl-N-[3-((S)-1-naphthalen-1-yl-ethylcarbamoyl)-phenyl]-benzamide], the IC50 was 0.69 µM.

For `COc1ccccc1C(=O)Nc1cccc(C(=O)Nc2ccc3ccccc3n2)c1` [Compound 41, 3-(2-Methoxy-benzoylamino)-N-quinolin-2-yl-benzamide], the IC50 amounted to 3.7 µM.

Take `O=C(NCc1cccc(-c2ccccc2)c1)c1cccc(NC(=O)c2ccccc2C(F)(F)F)c1` [Compound 137, N-(3-Phenyl-benzyl)-3-(2-trifluoromethyl-benzoylamino)-benzamide]: the IC50 amounted to 0.32 µM.

Turning to `O=C(Nc1cccc(C(=O)NC2CCCCCC2)c1)c1cc(C(F)(F)F)cc(C(F)(F)F)c1` [Compound 54, N-(3-Cycloheptylcarbamoyl-phenyl)-3,5-bis-trifluoromethyl-benzamide], the IC50 is 1.2 µM.

Turning to `Cc1cccc(CNC(=O)c2cccc(NC(=O)c3ccccc3C(F)(F)F)c2)c1C` [Compound 139, N-(2,3-Dimethyl-benzyl)-3-(2-trifluoromethyl-benzoylamino)-benzamide], the IC50 is 0.075 µM.

Regarding `C[C@H](NC(=O)c1cccc(NC(=O)c2c(Cl)cccc2Cl)c1)c1cccc2ccccc12` [Compound 74, 2,6-Dichloro-N-[3-((S)-1-naphthalen-1-yl-ethylcarbamoyl)-phenyl]-benzamide], the IC50 was 0.47 µM.

As to `O=C(Nc1ccc2ccccc2n1)c1cccc(NC(=O)c2ccccc2I)c1` [Compound 46, 3-(2-Iodo-benzoylamino)-N-quinolin-2-yl-benzamide], the IC50 was found to be 0.29 µM.

For `O=C(NCc1ccccc1N1CCOCC1)c1cccc(NC(=O)c2ccccc2C(F)(F)F)c1` [Compound 149, N-(2-morpholin-4-yl-benzyl)-3-(2-trifluoromethyl-benzoylamino)-benzamide], the IC50 amounted to 2 µM.

Take `O=C(NCc1cccc2ccccc12)c1cccc(NC(=O)c2ccccc2-c2cccs2)c1` [Compound 116, N-{3-[(Naphthalen-1-ylmethyl)-carbamoyl]-phenyl}-2-thiopene-2-yl-benzamide]: the IC50 came to 2.5 µM.

In the case of `O=C(NCc1cccc(Br)c1)c1cccc(NC(=O)c2ccccc2C(F)(F)F)c1` [Compound 138, N-(3-Bromo-benzyl)-3-(2-trifluoromethyl-benzoylamino)-benzamide], the IC50 was found to be 0.16 µM.

Regarding `O=C(Nc1ccc2ccccc2n1)c1cccc(NC(=O)c2ccccc2-c2cccs2)c1` [Compound 49, 3-(2-Thiophene-2-yl-benzoylamino)-N-quinolin-2-yl-benzamide], the IC50 came out at 1.2 µM.

With `COc1cccc(OC)c1C(=O)Nc1cccc(C(=O)Nc2ccc3ccccc3n2)c1` [Compound 42, 3-(2,6-Dimethoxy-benzoylamino)-N-quinolin-2-yl-benzamide], the IC50 is 3.1 µM.

For the molecule `C[C@@H](NC(=O)c1cccc(NC(=O)c2ccccc2Cl)c1)c1cccc2ccccc12` [Compound 101, 2-Chloro-N-[3-((R)-1-naphthalen-1-yl-ethylcarbamoyl)-phenyl]-benzamide], the IC50 came out at 0.29 µM.

As for `O=C(NCc1cccc2ccccc12)c1cccc(NC(=O)c2ccccc2Br)c1` [Compound 103, 2-Bromo-N-{3-[(naphthalen-1-ylmethyl)-carbamoyl]-phenyl}-benzamide], the IC50 turned out to be 0.18 µM.

Turning to `O=C(NCc1cccc2ccccc12)c1cccc(NCc2ccccc2Br)c1` [Compound 122, 3-(2-Bromo-benzylamino)-N-naphthalen-1-ylmethyl-benzamide], the IC50 is 1 µM.

On to `COc1cccc(OC)c1C(=O)Nc1cccc(C(=O)NCc2cccc3ccccc23)c1` [Compound 108, 2,6-Dimethoxy-N-{3-[(naphthalen-1-ylmethyl)-carbamoyl]-phenyl}-benzamide], for which the IC50 was found to be 2.2 µM.

By IC50 is commonly meant the point on the concentration scale where inhibition reaches its midpoint.
